Patent US12281077B2, “Solid forms of n-tert-butyl-4[[2-(5-chloro-2-hydroxy-phenyl)acetyl]amino]pyridine-2-carboxamide” (TMEM16A LIMITED, priority 2019, dated 2025)
“Also recorded” adds a separate entry of the source. Like-named read-outs stand apart in the source and are kept apart here. One block for each compound: values may come before it.

Key:
Assay type in all cases: physicochemical
[1] = Competitive suspension equilibrations in acetonitrile; conditions: acetonitrile (20 vol)
Source text: Form A of Compound 1 and the appropriate other form(s) of Compound 1 were suspended in acetonitrile (20 vol). […] When completed, the products were isolated, oven dried and analysed by XRPD.

[2] = Thermocycling of Form A, Form B(I) and Form B(II) in purified water; conditions: purified water (10 vol), −10 to +10° C., ±0.5° C./minute, 75 h
Procedure: Samples of Compound 1, Form A, Form B(I) and Form B(II) were charged to separate Crystal 16 blank, glass vials and purified water (1 ml, 10.0 vol) was added each vial. Each vial underwent thermocycling from −10 to +10° C. at a ramp rate of ±0.5° C./minute, over 75 h.

[3] = Suspension equilibrations of Form A (Example 7)
Procedure: Compound 1 Form A, (ca 50 mg, 1.0 wt) and the appropriate solvent (1000 μl, 20 vol) were charged to separate vessels and stirred for 7 days at 20° C. After this time the products were cooled, isolated by filtration, washed with recycled maturation solvent, dried under reduced pressure at 40° C. and analysed by XRPD for evidence of alternative crystalline forms.
Separate portions of Compound 1, Form A (ca 50 mg, 1.0 wt.), and the appropriate solvent (1000 μl, 20 vol.) were charged to separate vessels and stirred for 7 days at 40° C. After this time, the products were cooled, isolated by filtration, washed with recycled maturation solvent, dried under reduced pressure at 40° C. and analysed by XRPD for evidence of alternative crystalline forms. N.B. water was also included in this screen. • All of the products corresponded to Form A, except the product isolated from tBME (Form D), and from THF (Form G; see FIG. 18). […] C. Aqueous Suspension Equilibrations of Form A at 20° C.
Separate portions of Compound 1, Form A (ca 50 mg, 1.0 wt.), and the appropriate solvent (950 μl, 19 vol) and purified water (50 μl, 1.0 vol) were charged to separate vessels and stirred for 7 to 10 days at 20° C. […] Form C is an anhydrous form, and sometimes occurs in the presence of aromatic solvents (toluene and trifluorotoluene).

[4] = Thermocycling of Form B(I) in buffered aqueous suspensions (Form A control); conditions: −10° C. to +40° C.
Procedure: Form B(I) was prepared in the relevant formulation under sterile conditions. The samples were thermocycled for approximately 202 complete cycles. Off-line analyses of the suspensions were performed by polarised light microscopy and end point sampling was performed on the isolated solid pellets of the suspensions after centrifugation. The thermocycling incorporated a wide temperature range (−10° C. to +40° C.). A parallel study was performed using micronised Form A as control.
In all cases, the suspension volume was 2 ml and thermocycling was carried out over a temperature range −10° C. to +40° C. at a rate of change of 1° C./min for a duration of 336 hours (14 days) and […] cycles.
At daily intervals, a droplet from each thermocycle suspension was withdrawn, placed on a microscope slide and photographed. After 14 days constant thermocycling, the suspensions were filtered, isolable solids were oven dried and analysed for evidence of form change and change in chemical purity.

[5] = Dynamic vapour sorption (DVS) of Form A
Procedure: The moisture sorption properties of the feed API were analysed by DVS (DVS Intrinsic,
Surface Measurement System). Approximately 50 mg of API was weighed into an aluminium pan and loaded into the instrument at 25° C. The sample was allowed to equilibrate under dry atmosphere (0% relative humidity) for 1 hour before increasing the humidity from 0% to 30% at 5% step increment and from 30% to 90% at 10% step increment. A desorption cycle was also applied from 90% to 30% (10% step) and from 30% to 0% (5% step). A rate of change by time was set as the equilibrium parameter (1 hour each step). Kinetic and isotherm graphs were calculated.

[6] = Aqueous surfactant equilibration of Form A: conversion into Form B monitored by XRPD
Procedure: A sample of Form A was micronised using an AS100 spiral jet mill (Alpine) with a ZD9 screw dosing system at a milling gas pressure of 5.0 bar (18° C.) and an injection gas pressure of 6.0 bar (18° C.). Feed rate was 350 g/hr.
Form A and micronised Form A were added to purified water containing the surfactants shown in Table 6, and the mixtures were stirred at 20° C.
Sub samples (300 to 500 μl) were withdrawn at the appropriate time points. The mixtures were centrifuged, the clarified supernatant was decanted, and the pellet was oven dried (20° C., 24 h) and analysed by XRPD. […] The time taken for complete conversion of Form A into Form B was concluded when Form A was no longer detectable by XRPD.
A micelle is an aggregate of surfactant molecules dispersed in a liquid colloid. Micelles form only when the concentration of surfactant is greater than the critical micelle concentration (CMC). • Surf 1: TWEEN® 80 (polysorbate 80; polyoxyethylene sorbitan monooleate) Critical Micellar Concentration (CMC) 13-15 mg/litre [actual concentration used=1 mg/ml, 1000 mg/litre>CMC] • Surf 2: TWEEN® 20 (polysorbate 20; polyethylene glycol sorbitan monolaurate) 20 Critical Micellar Concentration (CMC) ca 61 mg/litre [actual concentration used=0.5 mg/ml, 500 mg/litre>CMC] • Surf 3: SPAN® 20 (sorbitan monolaurate) no CMC in water, too hydrophobic and yet still exerted an inhibitory effect on the form conversion • Surf 4: TWEEN® 80 Critical Micellar Concentration (CMC) 13-15 mg/litre [actual concentration used=0.01 mg/ml, 10 mg/litre<CMC] • TWEEN® surfactants are soluble in water and SPAN® surfactants are oil soluble and not able to form micelles in water.

[7] = Suspension equilibration of Form B(II) in acetonitrile/water
Procedure: To further investigate the stability hierarchy of Form B (I) and Form B (II), an equal portion of both Form B (I) and Form B (II) were competitively slurry ripened in 4 to 1 MeCN/Water (w/w) for 3 days.
One portion of Form B(II) (1.06 g) was charged with 4 to 1 v/v acetonitrile/water (15 vol, 15 ml). This was stirred at room temperature with a flow of nitrogen. The mixture was subsampled at t=4 h and t=23 h. The subsamples were centrifuged down (13400 rpm for 15 min), supernatants were removed and dried overnight in oven at 40° C. under reduced pressure.

[8] = Compaction of Forms B(I) and B(II) (ca 10 tonnes)
Source text: Assuming that the inconsistencies between the dehydration behaviours of the two batches were attributed to different locations and bindings of their water occupancies, both were examined after 10 tonne compaction, to determine if their dehydration features were conserved or altered after the application of equal pressure treatments.
A finely divided specimen of Form B(II) was applied evenly to the smooth surface of the lower sample anvil that was located inside the compression cell apparatus. A second smoothed face anvil was placed above the first and the sample was pressed into place using finger pressure. The sealed sample cell was then evacuated under house vacuum pressure for at least 5 minutes. An axial load of ca 10 metric tonnes was applied to the upper anvil and the specimen was maintained under a state of unilateral compression for at least 15 minutes. After which time, the apparatus was dismantled and the product was retrieved from the sample holder and analysed to determine if any phase modifications had taken place.

[9] = Suspension equilibration of Form B in anhydrous acetonitrile; conditions: room temperature
Procedure: One portion of Form B(II) (1.01 g) was charged with anhydrous acetonitrile (15 vol, 15 ml).
This was stirred at room temperature with a flow of nitrogen. The mixture IPC was subsampled at t=3 h and t=23 h. The subsampled mixtures were centrifuged down (13400 rpm for 15 min), supernatants were removed and dried overnight in oven at 40° C. under reduced pressure. The remaining solid was dried (t=2 days) in oven overnight under reduced pressure at 40° C. overnight. The dried white solid (0.54 g, 54% yield not corr.) was analysed by XRPD and DSC.
A similar procedure was carried out for a portion of Form B(I) (1.06 g). Int his case, the mixture was subsampled at t=5 h and isolation was carried out at t=5 days. The uncorrected yield was 66%.

[10] = Suspension equilibration of Form B(II) in purified water; conditions: room temperature
Procedure: One portion of Form B(II) (1.0 g) was charged with purified water (15 vol, 15 ml). This was stirred at room temperature with a flow of nitrogen for 20 h. The mixture was subsampled at t=2 h and t=20 h. The subsampled mixture was centrifuged down (13400 rpm for 15 min) and supernatant was removed. The remaining solid was dried (at t=3 days) in the oven under reduced pressure at 40° C. overnight. The dried white solid (A0903-184-C1, 0.84 g, 83% yield not corr.). The result for the sample at 3 days are not shown as these are the same as the subsample taken at 20 hours.

[11] = citrate buffered surfactant suspensions, 1° C./min, 14 days
[12] = micronised (particle size 2 μm), 20° C., with or without surfactant

- Output form (XRPD) ([1]; 40 ° C., stirred 7 days): Form A
SMILES: CC(C)(C)NC(=O)c1cc(NC(=O)Cc2cc(Cl)ccc2O)ccn1 [Form A + Form D (1/1 w/w)]

- Output form (XRPD) ([1]; 20 ° C.): Form A
SMILES: CC(C)(C)NC(=O)c1cc(NC(=O)Cc2cc(Cl)ccc2O)ccn1 [Form A + Form F (1/1 w/w)]

- form change by XRPD and DSC after thermocycling [2]: did not change
- form after suspension equilibration in purified water only (XRPD) ([3]; 20° C., 7 to 10 days): partial conversion into Form B
- form after suspension equilibration in purified water (XRPD) ([3]; 40° C., 7 days): Form A, no Form B was evident
- Output form (XRPD) ([1]; 40 ° C., stirred 7 days): Form A
- form after thermocycling (XRPD) ([4]; citrate buffered Tween® 20/Span® 22, 14 days, 1° C./min): converted to Form B
- form after thermocycling (XRPD) ([4]; citrate buffered Tween® 80, 14 days, 1° C./min): converted to Form B
- time point of first morphological change (polarised light microscopy) ([4]; citrate buffered surfactant suspensions, 1° C./min): eight day
- form stability to constant thermocycling (XRPD, DSC, TGA, microscopy) [4, 11]: changed into Form B(I)
- chemical purity after thermocycling ([4]; 14 days, accompanying the form change): No reduction in chemical purity
- hydrate formation, XRPD repeated after the DVS test [5]: no hydrate was formed
- hygroscopicity / moisture affinity by DVS [5]: not hygroscopic
- change in mass (uptake of water) by DVS ([5]; 90% relative humidity (RH), 25° C.): 0.02%
- storage stability of Form A in pre-made composition (surfactant present) ([6]; 20 to 40° C. storage conditions): 120 h
- Form B in aqueous suspension of Form A ([6]; 24 hour time point): no Form B can be detected
- time after which micronised Form A had almost completely converted into Form B [6, 12]: 146 h
- time after which micronised Form A had started to convert to Form B [6, 12]: 48 h
SMILES: CC(C)(C)NC(=O)c1cc(NC(=O)Cc2cc(Cl)ccc2O)ccn1 [Form A, N-tert-Butyl-4-[[2-(5-chloro-2-hydroxy-phenyl)acetyl]amino]pyridine-2-carboxamide]
- form stability in solvent suspension (XRPD) ([3]; anhydrous solvents (20 vol), 20° C., 7 days): resilient to prolonged solvent mediated treatments
- form present in aqueous suspension of Form A ([6]; after 8 days): substantially all of the Compound 1 was present as the Form B hydrate crystalline form

- resulting solid (DSC) after competitive slurry ripening ([7]; 4 to 1 MeCN/Water (w/w), 3 days): Form B (I)
SMILES: CC(C)(C)NC(=O)c1cc(NC(=O)Cc2cc(Cl)ccc2O)ccn1 [Form B (I) and Form B (II)]

- form change by XRPD and DSC after thermocycling [2]: unchanged
- form after 10 tonne compaction (DSC) [8]: unchanged
- form stability to constant thermocycling (XRPD, DSC, TGA, microscopy) [4, 11]: stable
- form after suspension equilibration in anhydrous acetonitrile (XRPD) ([9]; 5 hours, 5 days similar): rapidly converted to Form A
SMILES: CC(C)(C)NC(=O)c1cc(NC(=O)Cc2cc(Cl)ccc2O)ccn1 [Form B(I), N-tert-Butyl-4-[[2-(5-chloro-2-hydroxy-phenyl)acetyl]amino]pyridine-2-carboxamide]

- form after suspension equilibration in purified water (DSC) ([10]; 20 hours and three days): converted to Form B(I)
- degree of crystallinity by XRPD before compression [8]: 87.2%
- form after 10 tonne compaction (DSC) [8]: converted to Form B(I)
- degree of crystallinity by XRPD after compression ([8]; ca 10 metric tonnes): 80.3%
- form after 10 tonne compaction (DSC) ([8]; listed as Form B (II)): Form B (I) emerged
- form after suspension equilibration in anhydrous acetonitrile (XRPD) ([9]; 3 hours, 23 hours and 3 days substantially the same): rapidly converted to Form A
SMILES: CC(C)(C)NC(=O)c1cc(NC(=O)Cc2cc(Cl)ccc2O)ccn1 [Form B(II), N-tert-Butyl-4-[[2-(5-chloro-2-hydroxy-phenyl)acetyl]amino]pyridine-2-carboxamide]
- form change by XRPD and DSC after thermocycling [2]: almost all converted to the unimodal event
- form after stirring in 4 to 1 v/v acetonitrile/water (DSC, XRPD) ([7]; room temperature, t=4 h and t=23 h): production of Form B(I); also recorded: converted to Form B(I)
- form after suspension equilibration in purified water (DSC) ([10]; 2 hours): only the unimodal event was observed; also recorded: converted to Form B(I)
